In US20070128217A1 (priority 2003, published 2007):

Tests used:
[1] = test system: control sera (pooled serum of ten healthy LUMC hospital workers; commercial negative donor pooled serum from the Dutch bloodbank); assay type: binding, human; set-up: Binding of Control serum LUMC to linear peptides / Binding of Control serum Blood-bank to linear peptides / Binding of Control serum LUMC to looped peptides / Binding of Control Serum Blood-Bank to Looped peptides / Binding of Control serum LUMC to linear peptides of the protein M of SARS-CoV Urbani / Binding of Control serum Blood-bank to linear peptides of the protein M of SARS-CoV Urbani / Binding of Control serum LUMC to looped peptides of the protein M of SARS-CoV Urbani / Binding of Control Serum Blood-Bank to Looped peptides of the protein M of SARS-CoV Urbani: unit not given here
[2] = test system: rabbit serum obtained by immunizing a rabbit with the SARS-CoV strain Frankfurt 1; assay type: binding; set-up: Binding of a rabbit serum to linear peptides / Binding of a rabbit serum to looped peptides / Rabbit serum linear peptides / Rabbit serum looped peptides / Binding of a rabbit serum to linear peptides of protein N of SARS-CoV Urbani (Rabbit serum linear peptides) / Binding of a rabbit serum to looped/cyclic peptides of protein N of SARS-CoV Urbani (Rabbit serum looped peptides): unit not given here

| Sequence | Binding of Control Serum Blood-Bank to Looped peptides [1] | Binding of Control serum Blood-bank to linear peptides [1] | Binding of Control serum LUMC to linear peptides [1] | Binding of Control serum LUMC to looped peptides [1] | Binding of a rabbit serum to linear peptides [2] | Binding of a rabbit serum to looped peptides [2] | Rabbit serum linear peptides [2] | Rabbit serum looped peptides [2] | further results |
| --- | --- | --- | --- | --- | --- | --- | --- | --- | --- |
| KDPPNVQIHTIDGSS | 1.1 | 0.3 | 0.3 | 1.1 | 0.1 | 0.9 | – | – | – |
| KKTTKLVVILRIGTQ | 0.6 | 0.4 | 0.5 | 0.8 | – | – | – | – | Recognition of the peptide by the rabbit serum [2]: recognized |
| KLKEDYQIGGYSEDR | 0.5 | 0.5 | 0.5 | 0.6 | 0.1 | 0.5 | – | – | – |
| KLNTDHAGSNDNIAL | – | – | – | – | – | – | 0.4 | 0.3 | Binding of Control Serum Blood-Bank to Looped peptides of the protein M of SARS-CoV Urbani [1]: 1.0; Binding of Control serum Blood-bank to linear peptides of the protein M of SARS-CoV Urbani [1]: 0.9; Binding of Control serum LUMC to linear peptides of the protein M of SARS-CoV Urbani [1]: 0.7; Binding of Control serum LUMC to looped peptides of the protein M of SARS-CoV Urbani [1]: 0.9 |
| KLVKDPPNVQIHTID | 0.4 | 0.4 | 0.5 | 0.4 | 0.1 | 0.4 | – | – | – |
| KNYSELDDEEPMELD | – | – | – | – | – | – | 0.3 | 0.2 | Binding of Control Serum Blood-Bank to Looped peptides of the protein X3 of SARS-CoV Urbani [1]: 0.6; Binding of Control serum Blood-bank to linear peptides of the protein X3 of SARS-CoV Urbani [1]: 0.7; Binding of Control serum LUMC to linear peptides of the protein X3 of SARS-CoV Urbani [1]: 0.6; Binding of Control serum LUMC to looped peptides of the protein X3 of SARS-CoV Urbani [1]: 0.8 |
| KPLTKKNYSELDDEE | – | – | – | – | – | – | 0.4 | 0.5 | Binding of Control Serum Blood-Bank to Looped peptides of the protein X3 of SARS-CoV Urbani [1]: 0.8; Binding of Control serum Blood-bank to linear peptides of the protein X3 of SARS-CoV Urbani [1]: 0.7; Binding of Control serum LUMC to linear peptides of the protein X3 of SARS-CoV Urbani [1]: 0.8; Binding of Control serum LUMC to looped peptides of the protein X3 of SARS-CoV Urbani [1]: 0.7 |
| KPTVYVYSRVKNLNS | 0.9 | 0.7 | 0.8 | 0.9 | 0.6 | 0.9 | – | – | – |
| KTMSLYMAISPKFTT | 0.7 | 0.7 | 0.6 | 1.0 | 0.3 | 0.8 | – | – | – |
| KTTKLVVILRIGTQV | 0.7 | 0.4 | 0.5 | 0.7 | – | – | – | – | Recognition of the peptide by the rabbit serum [2]: recognized |
| LCAYCCNIVNVSLVK | 0.8 | 1.1 | 0.8 | 0.7 | 0.7 | 0.4 | – | – | – |
| LGRCDIKDLPKEITV | – | – | – | – | – | – | 0.1 | 0.6 | Binding of Control Serum Blood-Bank to Looped peptides of the protein M of SARS-CoV Urbani [1]: 0.8; Binding of Control serum Blood-bank to linear peptides of the protein M of SARS-CoV Urbani [1]: 0.7; Binding of Control serum LUMC to linear peptides of the protein M of SARS-CoV Urbani [1]: 0.5; Binding of Control serum LUMC to looped peptides of the protein M of SARS-CoV Urbani [1]: 0.8 |
| LIIIMRTFRIAIWNL | – | – | – | – | – | – | 0.5 | 0.3 | Binding of Control Serum Blood-Bank to Looped peptides of the protein X3 of SARS-CoV Urbani [1]: 0.6; Binding of Control serum Blood-bank to linear peptides of the protein X3 of SARS-CoV Urbani [1]: 0.7; Binding of Control serum LUMC to linear peptides of the protein X3 of SARS-CoV Urbani [1]: 0.6; Binding of Control serum LUMC to looped peptides of the protein X3 of SARS-CoV Urbani [1]: 0.7 |
| LKTMSLYMAISPKFT | 0.6 | 0.7 | 0.6 | 0.6 | 0.1 | 0.4 | – | – | – |
| LTKKNYSELDDEEPM | – | – | – | – | – | – | 0.2 | 0.4 | Binding of Control Serum Blood-Bank to Looped peptides of the protein X3 of SARS-CoV Urbani [1]: 0.8; Binding of Control serum Blood-bank to linear peptides of the protein X3 of SARS-CoV Urbani [1]: 0.9; Binding of Control serum LUMC to linear peptides of the protein X3 of SARS-CoV Urbani [1]: 0.6; Binding of Control serum LUMC to looped peptides of the protein X3 of SARS-CoV Urbani [1]: 1.0 |
| LYHYQECVRGTTVLL | 0.7 | 0.6 | 0.6 | 0.6 | – | – | 0.6 | 0.3 | – |

| Sequence | Binding of Control Serum Blood-Bank to Looped peptides [1] | Binding of Control serum Blood-bank to linear peptides [1] | Binding of Control serum LUMC to linear peptides [1] | Binding of Control serum LUMC to looped peptides [1] | Binding of a rabbit serum to linear peptides [2] | Binding of a rabbit serum to looped peptides [2] | Rabbit serum linear peptides [2] | Rabbit serum looped peptides [2] | further results |
| --- | --- | --- | --- | --- | --- | --- | --- | --- | --- |
| MDPIYDEPTTTTSVP | 0.3 | 0.6 | 0.5 | 0.3 | 0.1 | 0.3 | – | – | – |
| NGTITVEELKQLLEQ | – | – | – | – | – | – | – | – | Binding of Control Serum Blood-Bank to Looped peptides of the protein M of SARS-CoV Urbani [1]: 0.6; Binding of Control serum Blood-bank to linear peptides of the protein M of SARS-CoV Urbani [1]: 0.7; Binding of Control serum LUMC to linear peptides of the protein M of SARS-CoV Urbani [1]: 0.5; Binding of Control serum LUMC to looped peptides of the protein M of SARS-CoV Urbani [1]: 0.8; Recognition of the peptide by the rabbit serum [2]: recognized |
| NSKKTTKLVVILRIG | 0.7 | 0.4 | 0.9 | 0.7 | – | – | – | – | Recognition of the peptide by the rabbit serum [2]: recognized |
| NVSLVKPTVYVYSRV | 0.7 | 0.6 | 0.5 | 0.8 | 0.5 | 0.3 | – | – | – |
| NYKLNTDHAGSNDNI | – | – | – | – | – | – | 0.5 | 0.0 | Binding of Control Serum Blood-Bank to Looped peptides of the protein M of SARS-CoV Urbani [1]: 0.6; Binding of Control serum Blood-bank to linear peptides of the protein M of SARS-CoV Urbani [1]: 0.7; Binding of Control serum LUMC to linear peptides of the protein M of SARS-CoV Urbani [1]: 0.5; Binding of Control serum LUMC to looped peptides of the protein M of SARS-CoV Urbani [1]: 0.8 |
| NYSELDDEEPMELDY | – | – | – | – | – | – | 0.4 | 0.3 | Binding of Control Serum Blood-Bank to Looped peptides of the protein X3 of SARS-CoV Urbani [1]: 0.8; Binding of Control serum Blood-bank to linear peptides of the protein X3 of SARS-CoV Urbani [1]: 0.9; Binding of Control serum LUMC to linear peptides of the protein X3 of SARS-CoV Urbani [1]: 0.9; Binding of Control serum LUMC to looped peptides of the protein X3 of SARS-CoV Urbani [1]: 0.9 |
| PFHPLADNKFALTCT | 0.9 | 0.7 | 0.8 | 0.9 | – | – | 0.4 | 0.4 | – |
| PLADNKFALTCTSTH | 0.6 | 0.8 | 0.5 | 0.7 | – | – | 1.1 | 0.0 | – |
| PLTKKNYSELDDEEP | – | – | – | – | – | – | 0.2 | 0.4 | Binding of Control Serum Blood-Bank to Looped peptides of the protein X3 of SARS-CoV Urbani [1]: 0.8; Binding of Control serum Blood-bank to linear peptides of the protein X3 of SARS-CoV Urbani [1]: 0.8; Binding of Control serum LUMC to linear peptides of the protein X3 of SARS-CoV Urbani [1]: 0.9; Binding of Control serum LUMC to looped peptides of the protein X3 of SARS-CoV Urbani [1]: 0.8 |
| PSGTYEGNSPFHPLA | 0.8 | 0.9 | 0.7 | 0.9 | – | – | 0.5 | 0.5 | – |
| PTVYVYSRVKNLNSS | 1.1 | 0.8 | 0.5 | 0.8 | 0.7 | 0.7 | – | – | – |
| QDPAGGALIARCWYL | 0.8 | 0.7 | 0.3 | 0.6 | – | – | 0.5 | 0.9 | – |
| QIGGYSEDRHSGVKD | 0.3 | 0.3 | 0.5 | 0.4 | 0.1 | 0.5 | – | – | – |
| QVLKTMSLYMAISPK | 0.4 | 0.9 | 0.7 | 0.4 | 0.1 | 0.5 | – | – | – |
| RHSGVKDYVVVHGYF | 0.7 | 0.6 | 0.5 | 0.6 | 0.1 | 0.4 | – | – | – |
